≈ marks a conversion by molar mass, not a printed value.
Experiments:
[1] = test system: Mycobacterium tuberculosis; assay: Antitubercular activity against Mycobacterium tuberculosis H37Rv transfected with pFCA-luxAB in 7H12 medium after 10 days by low-oxygen recovery assay; format: functional; conditions: 240 h
[2] = test system: Mycobacterium tuberculosis; assay: Antitubercular activity against Mycobacterium tuberculosis H37Rv ATCC 27294 in glycerol-alanine-salts medium after 7 days by Microplate Alamar Blue assay; format: functional; conditions: H37Rv ATCC 27294, 168 h
Vero = assay: Cytotoxicity against African green monkey Vero cells assessed as cell viability after 72 hrs by CellTiter 96 assay; format: cell-based; conditions: Chlorocebus sabaeus
[3] = test system: Mycobacterium tuberculosis; assay: Antitubercular activity against Mycobacterium tuberculosis H37Rv ATCC 27294 in 7H12 medium after 7 days by Microplate Alamar Blue assay; format: functional; conditions: H37Rv ATCC 27294, 168 h
Candida albicans = assay: Antimicrobial activity against Candida albicans by broth microdilution assay; format: functional
Staphylococcus aureus = assay: Antimicrobial activity against Staphylococcus aureus by broth microdilution assay; format: functional
Mycobacterium marinum = assay: Antimycobacterial activity against Mycobacterium marinum ATCC 927 in 7H9 medium after 5 days and 6 hrs after adding resazurin dye/Tween 80 by Microplate Alamar Blue assay; format: functional
Mycobacterium avium = assay: Antimycobacterial activity against Mycobacterium avium ATCC 15769 in 7H9 medium after 6 days and 18 hrs after adding resazurin dye/Tween 80 by Microplate Alamar Blue assay; format: functional
Mycobacterium kansasii = assay: Antimycobacterial activity against Mycobacterium kansasii ATCC 12478 in 7H9 medium after 6 days and 18 hrs after adding resazurin dye/Tween 80 by Microplate Alamar Blue assay; format: functional
[4] = test system: Mycolicibacterium smegmatis; assay: Antimycobacterial activity against Mycobacterium smegmatis by broth microdilution assay; format: functional
Mycobacteroides chelonae = assay: Antimycobacterial activity against Mycobacterium chelonae ATCC 35752 in 7H9 medium after 3 days and 4 hrs after adding resazurin dye/Tween 80 by Microplate Alamar Blue assay; format: functional
Escherichia coli = assay: Antimicrobial activity against Escherichia coli by broth microdilution assay; format: functional
[5] = test system: Mycobacteroides abscessus; assay: Antimycobacterial activity against Mycobacterium abscessus ATCC 19977 in 7H9 medium after 3 days and 4 hrs after adding resazurin dye/Tween 80 by Microplate Alamar Blue assay; format: functional

SMILES | MIC90 [1] [µM] | MIC90 [2] [µM] | IC50 (Vero) [µM] | MIC90 [3] [µM] | MIC (Candida albicans) [µM] | MIC (Staphylococcus aureus) [µM] | MIC (Mycobacterium marinum) [µM] | MIC (Mycobacterium avium) [µM] | MIC (Mycobacterium kansasii) [µM] | MIC [4] [µM] | MIC (Mycobacteroides chelonae) [µM] | MIC (Escherichia coli) [µM] | MIC [5] [µM]
O=[N+]([O-])c1cn2c(n1)OC[C@@H](OCc1ccc(OC(F)(F)F)cc1)C2 [PRETOMANID] | 4.9 (≈ 1.76 µg/mL) | 0.12 | > 128 | 0.09 (≈ 0.0323 µg/mL) |  |  |  |  |  |  |  |  | 
Cc1ccc2nc(C)c(C(=O)NCc3ccccc3)n2c1 | > 128 | 0.11 | > 128 | 0.49 (≈ 0.137 µg/mL) | > 128 | > 128 | > 128 | 15.7 (≈ 4.39 µg/mL) | 4 (≈ 1.12 µg/mL) | > 128 | 94 (≈ 26.3 µg/mL) | > 128 | > 128
Cc1cnc2nc(C)c(C(=O)NCc3ccccc3)n2c1 | > 128 | 1.27 | > 128 | 6.95 (≈ 1.95 µg/mL) | > 128 | > 128 | > 128 | 122 (≈ 34.2 µg/mL) | 18.7 (≈ 5.24 µg/mL) | > 128 | > 128 | > 128 | > 128
Cc1ccn2c(C(=O)NCc3ccccc3)nnc2c1 | > 128 | 101 | > 128 | > 128 | > 128 | > 128 | > 128 | > 128 | > 128 | > 128 | > 128 | > 128 | > 128
Cc1ccc2nc(C)c(C(=O)NCc3ccccc3)n2n1 | > 128 | 63.8 | 24.7 | > 128 | > 128 | > 128 | > 128 | > 128 | > 128 | > 128 | > 128 | > 128 | > 128
NNC(=O)c1ccncc1 [ISONIAZID] |  |  |  |  |  |  | > 1000 | > 500 | 9.1 (≈ 1.25 µg/mL) |  | > 500 |  | > 500
Cc1cc2nc(C)c(C(=O)OCc3ccccc3)n2c(C)n1 |  | 1.1 |  | 1.1 (≈ 0.325 µg/mL) |  |  |  |  |  |  |  |  | 
Cc1ccc2c(C(=O)NCc3ccccc3)n[nH]c2c1 | > 128 | 40.8 | > 128 | > 128 | > 128 | > 128 | > 128 | > 128 | > 128 | > 128 | > 128 | > 128 | > 128
COc1c(N2C[C@@H]3CCCN[C@@H]3C2)c(F)cc2c(=O)c(C(=O)O)cn(C3CC3)c12 [MOXIFLOXACIN] |  |  |  |  |  |  | 12.4 (≈ 4.98 µg/mL) | 6.1 (≈ 2.45 µg/mL) | 0.12 (≈ 0.0482 µg/mL) |  | 0.24 (≈ 0.0963 µg/mL) |  | 22.4 (≈ 8.99 µg/mL)
Cc1ccc2c(C(=O)NCc3ccccc3)c(C)[nH]c2c1 | > 128 | 43.8 | > 128 | > 128 | > 128 | > 128 | > 128 | > 128 | > 128 | > 128 | > 128 | > 128 | > 128
Cc1cc(C)n2nc(C(=O)NCc3ccccc3)nc2n1 | > 128 | 126 | > 128 | > 128 | > 128 | > 128 | > 128 | > 128 | > 128 | > 128 | > 128 | > 128 | > 128
Cc1cn2c(C(=O)OCc3ccccc3)c(C)nc2cn1 |  | 2.3 |  | 2.3 (≈ 0.647 µg/mL) |  |  |  |  |  |  |  |  | 
Cc1cnc2nc(C)c(C(=O)OCc3ccccc3)n2c1 |  | 1.4 |  | 1.4 (≈ 0.394 µg/mL) |  |  |  |  |  |  |  |  | 
CO[C@H]1/C=C/O[C@@]2(C)Oc3c(C)c(O)c4c(O)c(c(/C=N/N5CCN(C)CC5)c(O)c4c3C2=O)NC(=O)/C(C)=C\C=C\[C@H](C)[C@H](O)[C@@H](C)[C@@H](O)[C@@H](C)[C@H](OC(C)=O)[C@@H]1C [RIFAMPIN] |  | 0.11 |  | 0.06 (≈ 0.0494 µg/mL) |  |  | 1.2 (≈ 0.988 µg/mL) | < 0.78 | 0.03 (≈ 0.0247 µg/mL) |  | > 100 |  | 162 (≈ 133 µg/mL)
Cc1ccn2c(C)c(C(=O)NCc3ccccc3)nc2c1 | > 128 | 70 | > 128 | > 128 | > 128 | > 128 | > 128 | > 128 | > 128 | > 128 | > 128 | > 128 | > 128
Cc1ccc2nc(C)c(C(=O)OCc3ccccc3)n2c1 |  | 0.004 |  | 0.004 (≈ 0.00112 µg/mL) |  |  |  |  |  |  |  |  | 
